# According to patent publication US20100137449A1, “SUBSTITUTED 1,3-CYCLOPENTADIONE MULTI-TARGET PROTEIN KINASE MODULATORS OF CANCER, ANGIOGENESIS AND THE INFLAMMATORY PATHWAYS ASSOCIATED THEREWITH” (METAPROTEOMICS, LLC, priority 2007, published 2010):
# Columns and labels:
# Experiment in all cases: KinaseProfiler Assay
# [1] = biological target: PAK4(h) (Homo sapiens, UniProt O96013)
# [2] = biological target: T1, SGK(h) (Homo sapiens, UniProt O00141)
# T1 sequence (O00141 1-431): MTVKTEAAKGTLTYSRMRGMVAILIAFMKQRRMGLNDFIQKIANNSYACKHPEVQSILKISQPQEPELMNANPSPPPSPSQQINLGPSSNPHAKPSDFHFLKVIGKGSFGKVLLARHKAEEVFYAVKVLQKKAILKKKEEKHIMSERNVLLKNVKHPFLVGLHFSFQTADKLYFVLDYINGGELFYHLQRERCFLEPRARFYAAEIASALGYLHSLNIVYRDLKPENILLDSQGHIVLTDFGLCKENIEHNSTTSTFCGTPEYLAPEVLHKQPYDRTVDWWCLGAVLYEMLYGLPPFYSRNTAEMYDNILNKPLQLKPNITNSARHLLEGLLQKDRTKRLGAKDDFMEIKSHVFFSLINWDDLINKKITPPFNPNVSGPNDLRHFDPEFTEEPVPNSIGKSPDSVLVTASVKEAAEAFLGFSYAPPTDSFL
# [3] = biological target: PKCα(h) (Homo sapiens, UniProt P17252)
# [4] = biological target: CaMKIδ(h) (Homo sapiens, UniProt Q8IU85)
# Chain of CaMKIδ(h) (Q8IU85 whole entry): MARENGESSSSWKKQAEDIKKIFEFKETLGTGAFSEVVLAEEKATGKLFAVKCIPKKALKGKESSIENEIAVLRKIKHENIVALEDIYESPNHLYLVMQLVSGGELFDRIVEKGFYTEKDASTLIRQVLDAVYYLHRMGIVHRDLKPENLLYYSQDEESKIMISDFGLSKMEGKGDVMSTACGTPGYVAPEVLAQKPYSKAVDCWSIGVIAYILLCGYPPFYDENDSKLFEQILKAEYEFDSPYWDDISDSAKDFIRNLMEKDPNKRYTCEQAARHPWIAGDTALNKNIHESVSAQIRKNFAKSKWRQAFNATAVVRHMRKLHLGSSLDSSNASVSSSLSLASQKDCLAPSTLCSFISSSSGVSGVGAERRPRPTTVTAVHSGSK
# [5] = biological target: T2, SAPK3(h) (Homo sapiens, UniProt P53778)
# T2 sequence (P53778 1-367): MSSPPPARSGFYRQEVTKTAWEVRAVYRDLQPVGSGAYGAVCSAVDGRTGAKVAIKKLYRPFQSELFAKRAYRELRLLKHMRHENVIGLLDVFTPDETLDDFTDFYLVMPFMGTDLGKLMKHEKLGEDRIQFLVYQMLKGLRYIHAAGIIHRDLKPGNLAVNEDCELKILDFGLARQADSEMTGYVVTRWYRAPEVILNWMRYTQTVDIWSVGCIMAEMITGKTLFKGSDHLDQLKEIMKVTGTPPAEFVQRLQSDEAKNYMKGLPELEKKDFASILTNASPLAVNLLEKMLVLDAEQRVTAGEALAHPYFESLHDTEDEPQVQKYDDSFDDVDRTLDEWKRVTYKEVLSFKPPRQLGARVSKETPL
# [6] = biological target: MAPKAP-K2(h) (Homo sapiens, UniProt P49137)
# Chain of MAPKAP-K2(h) (P49137 whole entry): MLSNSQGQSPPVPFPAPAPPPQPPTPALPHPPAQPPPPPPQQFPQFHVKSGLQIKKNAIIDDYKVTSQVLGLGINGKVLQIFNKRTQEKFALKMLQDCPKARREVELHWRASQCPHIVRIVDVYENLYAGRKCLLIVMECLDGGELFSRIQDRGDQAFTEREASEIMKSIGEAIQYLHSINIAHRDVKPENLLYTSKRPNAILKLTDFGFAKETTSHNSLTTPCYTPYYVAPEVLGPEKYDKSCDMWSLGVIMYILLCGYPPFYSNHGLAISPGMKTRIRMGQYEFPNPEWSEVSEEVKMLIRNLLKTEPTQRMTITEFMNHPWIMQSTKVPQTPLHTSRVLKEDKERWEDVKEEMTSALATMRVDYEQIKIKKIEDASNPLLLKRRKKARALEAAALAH
# [7] = biological target: T3, CaMKIV(h) (Homo sapiens, UniProt Q16566)
# T3 sequence (Q16566 1-473): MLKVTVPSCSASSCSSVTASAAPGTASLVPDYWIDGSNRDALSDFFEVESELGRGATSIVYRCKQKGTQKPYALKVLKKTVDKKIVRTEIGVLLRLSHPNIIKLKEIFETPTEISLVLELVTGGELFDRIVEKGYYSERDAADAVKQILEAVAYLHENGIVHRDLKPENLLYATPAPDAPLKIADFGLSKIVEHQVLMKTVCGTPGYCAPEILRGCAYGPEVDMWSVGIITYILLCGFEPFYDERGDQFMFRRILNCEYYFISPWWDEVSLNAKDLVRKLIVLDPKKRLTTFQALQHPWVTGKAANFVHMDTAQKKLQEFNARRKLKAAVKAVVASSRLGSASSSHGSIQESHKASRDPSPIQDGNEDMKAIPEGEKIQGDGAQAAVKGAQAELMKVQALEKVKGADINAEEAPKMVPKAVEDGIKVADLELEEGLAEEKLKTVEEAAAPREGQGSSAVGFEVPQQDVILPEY
# [8] = biological target: Ret(h) (Homo sapiens, UniProt P07949)
# Chain of Ret(h) (P07949 29-1114): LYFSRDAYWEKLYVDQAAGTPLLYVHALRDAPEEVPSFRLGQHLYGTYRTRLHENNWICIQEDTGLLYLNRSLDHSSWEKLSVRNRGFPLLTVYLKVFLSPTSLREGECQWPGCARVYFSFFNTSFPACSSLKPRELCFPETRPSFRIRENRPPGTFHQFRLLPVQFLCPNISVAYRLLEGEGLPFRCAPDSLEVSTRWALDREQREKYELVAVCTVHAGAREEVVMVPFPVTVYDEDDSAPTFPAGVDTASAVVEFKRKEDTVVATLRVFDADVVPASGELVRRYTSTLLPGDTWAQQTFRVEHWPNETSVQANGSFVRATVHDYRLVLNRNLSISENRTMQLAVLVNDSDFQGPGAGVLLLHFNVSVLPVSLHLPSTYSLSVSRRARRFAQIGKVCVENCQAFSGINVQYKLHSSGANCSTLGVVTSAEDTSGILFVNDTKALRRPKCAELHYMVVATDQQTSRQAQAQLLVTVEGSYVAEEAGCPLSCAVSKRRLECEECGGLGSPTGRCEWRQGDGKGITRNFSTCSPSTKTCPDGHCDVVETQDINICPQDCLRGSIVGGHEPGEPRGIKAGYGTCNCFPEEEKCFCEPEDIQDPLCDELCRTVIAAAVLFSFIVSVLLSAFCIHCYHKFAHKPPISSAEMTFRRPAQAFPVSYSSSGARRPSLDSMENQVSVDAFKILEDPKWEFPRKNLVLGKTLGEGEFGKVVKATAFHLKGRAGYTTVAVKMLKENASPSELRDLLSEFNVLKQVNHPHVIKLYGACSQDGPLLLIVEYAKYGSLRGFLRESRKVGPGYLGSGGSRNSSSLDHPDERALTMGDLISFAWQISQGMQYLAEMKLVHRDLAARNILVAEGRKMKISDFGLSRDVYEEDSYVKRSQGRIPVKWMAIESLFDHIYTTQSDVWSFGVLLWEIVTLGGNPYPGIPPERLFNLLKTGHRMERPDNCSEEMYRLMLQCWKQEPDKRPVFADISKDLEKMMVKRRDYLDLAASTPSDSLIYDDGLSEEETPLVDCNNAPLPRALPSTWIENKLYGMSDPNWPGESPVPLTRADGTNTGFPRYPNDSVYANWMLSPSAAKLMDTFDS
# [9] = biological target: T4, ZAP-70(h) (Homo sapiens, UniProt P43403)
# T4 sequence (P43403 1-619): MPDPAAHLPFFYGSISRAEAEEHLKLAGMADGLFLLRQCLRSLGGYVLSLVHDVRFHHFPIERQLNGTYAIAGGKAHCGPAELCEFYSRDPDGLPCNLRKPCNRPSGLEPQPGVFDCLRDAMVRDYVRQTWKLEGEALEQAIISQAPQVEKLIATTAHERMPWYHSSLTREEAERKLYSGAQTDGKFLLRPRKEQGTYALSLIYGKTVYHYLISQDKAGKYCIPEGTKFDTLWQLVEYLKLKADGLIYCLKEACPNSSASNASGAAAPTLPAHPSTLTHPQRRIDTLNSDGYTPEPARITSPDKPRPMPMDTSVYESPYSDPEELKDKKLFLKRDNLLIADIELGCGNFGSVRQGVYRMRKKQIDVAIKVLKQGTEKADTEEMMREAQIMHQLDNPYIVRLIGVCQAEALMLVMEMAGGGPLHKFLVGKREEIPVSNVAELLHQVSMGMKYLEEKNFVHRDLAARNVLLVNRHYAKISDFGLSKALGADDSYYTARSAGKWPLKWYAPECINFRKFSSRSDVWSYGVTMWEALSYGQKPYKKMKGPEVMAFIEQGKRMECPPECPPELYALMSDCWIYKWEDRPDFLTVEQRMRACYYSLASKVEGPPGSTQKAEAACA
# Chain of PAK4(h) (O96013 whole entry): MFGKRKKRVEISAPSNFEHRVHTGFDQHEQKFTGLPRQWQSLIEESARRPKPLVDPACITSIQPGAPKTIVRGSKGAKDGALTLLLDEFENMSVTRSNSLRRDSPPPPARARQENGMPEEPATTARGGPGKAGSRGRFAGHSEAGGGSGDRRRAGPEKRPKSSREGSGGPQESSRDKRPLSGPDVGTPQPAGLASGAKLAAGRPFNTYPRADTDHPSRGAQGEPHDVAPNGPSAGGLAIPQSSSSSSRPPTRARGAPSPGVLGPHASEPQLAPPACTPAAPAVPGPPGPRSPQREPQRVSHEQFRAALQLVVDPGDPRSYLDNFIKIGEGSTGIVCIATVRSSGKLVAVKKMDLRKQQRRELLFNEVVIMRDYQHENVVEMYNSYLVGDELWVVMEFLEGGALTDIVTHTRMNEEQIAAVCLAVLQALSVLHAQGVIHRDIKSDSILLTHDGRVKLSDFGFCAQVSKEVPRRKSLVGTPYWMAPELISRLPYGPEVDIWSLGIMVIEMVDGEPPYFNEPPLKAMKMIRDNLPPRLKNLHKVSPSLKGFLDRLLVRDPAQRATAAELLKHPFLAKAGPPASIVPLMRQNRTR
smiles,measurement,setting,value
"CC(C)CCC(=O)[C@]1(O)C(O)=C(C(=O)C(C)C)C(=O)[C@H]1CCC(C)C [TH2, tetrahydroiso-cohumulone]",kinase inhibition,[1]; 1 μg/ml,105% of control
same,kinase inhibition,[1]; 5 μg/ml,84% of control
same,kinase inhibition,[1]; 25 μg/ml,98% of control
same,kinase inhibition,[1]; 50 μg/ml,110% of control
same,kinase inhibition,[1]; 100 μg/ml,99% of control
same,kinase inhibition,[2]; 1 μg/ml,106% of control
same,kinase inhibition,[2]; 5 μg/ml,96% of control
same,kinase inhibition,[2]; 25 μg/ml,97% of control
same,kinase inhibition,[2]; 50 μg/ml,92% of control
same,kinase inhibition,[2]; 100 μg/ml,76% of control
same,kinase inhibition,[3]; 1 μg/ml,103% of control
same,kinase inhibition,[3]; 5 μg/ml,99% of control
same,kinase inhibition,[3]; 25 μg/ml,98% of control
same,kinase inhibition,[3]; 50 μg/ml,98% of control
same,kinase inhibition,[3]; 100 μg/ml,71% of control
same,kinase inhibition,[4]; 1 μg/ml,95% of control
same,kinase inhibition,[4]; 5 μg/ml,88% of control
same,kinase inhibition,[4]; 25 μg/ml,101% of control
same,kinase inhibition,[4]; 50 μg/ml,105% of control
same,kinase inhibition,[4]; 100 μg/ml,98% of control
same,kinase inhibition,[5]; 1 μg/ml,109% of control
same,kinase inhibition,[5]; 5 μg/ml,99% of control
same,kinase inhibition,[5]; 25 μg/ml,114% of control
same,kinase inhibition,[5]; 50 μg/ml,122% of control
same,kinase inhibition,[5]; 100 μg/ml,106% of control
same,kinase inhibition,[6]; 1 μg/ml,116% of control
same,kinase inhibition,[6]; 5 μg/ml,104% of control
same,kinase inhibition,[6]; 25 μg/ml,104% of control
same,kinase inhibition,[6]; 50 μg/ml,74% of control
same,kinase inhibition,[6]; 100 μg/ml,73% of control
same,kinase inhibition,[7]; 1 μg/ml,117% of control
same,kinase inhibition,[7]; 5 μg/ml,126% of control
same,kinase inhibition,[7]; 25 μg/ml,86% of control
same,kinase inhibition,[7]; 50 μg/ml,69% of control
same,kinase inhibition,[7]; 100 μg/ml,52% of control
same,kinase inhibition,[8]; 1 μg/ml,112% of control
same,kinase inhibition,[8]; 5 μg/ml,115% of control
same,kinase inhibition,[8]; 25 μg/ml,101% of control
same,kinase inhibition,[8]; 50 μg/ml,100% of control
same,kinase inhibition,[8]; 100 μg/ml,68% of control
same,kinase inhibition,[9]; 1 μg/ml,125% of control
same,kinase inhibition,[9]; 5 μg/ml,110% of control
same,kinase inhibition,[9]; 25 μg/ml,124% of control
same,kinase inhibition,[9]; 50 μg/ml,124% of control
same,kinase inhibition,[9]; 100 μg/ml,107% of control
